Laboratory results published in ChEMBL document CHEMBL1201862, “PubChem BioAssay data set” (2004).
Several values for one entry are separate records, joined by “and”; a condition that tells them apart may be missing. Identical values can stand only once.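 Five compound concentrations were applied to cells in 96-well plates for 48 hours; endpoints were derived by simple linear interpolation of the resulting dose-response curve. GI50 marks 50% less growth.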 Activity calls are given as the source filed them. Rule as the data show it: active = GI50 up to about 1.1 µM and inactive = higher.

Legend:
Test in all cases: NCI tumour cell line growth inhibition, 48 h
[1] = test system: A498
[2] = test system: A549
[3] = test system: BT-549
[4] = test system: DLD-1
[5] = test system: DMS-273
[6] = test system: DU-145
[7] = test system: EKVX
[8] = test system: HCT-116
[9] = test system: HCT-15
[10] = test system: HOP-18
[11] = test system: Hs-578T
[12] = test system: MCF7
[13] = test system: MDA-MB-231
[14] = test system: MDA-MB-435
[15] = test system: MDA-N
[16] = test system: Malme-3M
[17] = test system: NCI-H23
[18] = test system: NCI-H460
[19] = test system: NCI-H522
[20] = test system: NCI/ADR-RES
[21] = test system: PC-3
[22] = test system: SF-539
[23] = test system: SK-MEL-28
[24] = test system: SK-MEL-2
[25] = test system: SK-MEL-5
[26] = test system: SK-OV-3
[27] = test system: SNB-75
[28] = test system: SNB-78
[29] = test system: SW-620
[30] = test system: T47D
[31] = test system: UACC-257
[32] = test system: UACC-62
[33] = test system: UO-31
[34] = test system: XF498
[35] = test system: 786-0
[36] = test system: ACHN
[37] = test system: CAKI-1
[38] = test system: CCRF-CEM
[39] = test system: DMS-114
[40] = test system: HCC 2998
[41] = test system: HL-60
[42] = test system: HOP-62
[43] = test system: HOP-92
[44] = test system: HT-29
[45] = test system: IGROV-1
[46] = test system: K562
[47] = test system: KM12
[48] = test system: LOX IMVI
[49] = test system: LXFL 529
[50] = test system: M14
[51] = test system: M19-MEL
[52] = test system: MOLT-4
[53] = test system: NCI-H226
[54] = test system: OVCAR-3
[55] = test system: OVCAR-4
[56] = test system: OVCAR-5
[57] = test system: OVCAR-8
[58] = test system: RPMI-8226
[59] = test system: RXF 393
[60] = test system: SF-268
[61] = test system: SF-295
[62] = test system: SN12C
[63] = test system: SNB-19
[64] = test system: SR
[65] = test system: TK-10
[66] = test system: U-251
[67] = test system: COLO 205
[68] = test system: KM-20L2

Measured: GI50

COC(C(=O)C(O)C(C)O)C1Cc2cc3cc(OC4CC(OC(C)=O)C(OC5CC(O)C(OC)C(C)O5)C(C)O4)cc(O)c3c(O)c2C(=O)C1OC1CC(OC2CC(OC3CC(C)(O)C(OC(=O)C(C)C)C(C)O3)C(O)C(C)O2)C(O)C(C)O1 (centres undefined)
active: [1] 14.5 nM and 8.43 nM | [2] 10.9 nM and 9.48 nM | [3] 0.0202 µM | [4] 44.3 nM and 50.7 nM | [5] < 10 nM and 16.9 nM | [6] 0.101 µM | [7] 10.2 nM and < 10 nM | [8] < 18.4 nM and < 10 nM | [10] < 0.01 µM | [11] 0.0366 µM | [12] < 10 nM and 9.16 nM | [13] 0.0627 µM | [14] 0.0855 µM | [15] 0.112 µM | [16] 23.8 nM and < 13.5 nM | [17] < 17.8 nM and 15.4 nM | [18] 9.82 nM and < 10 nM | [19] 15.6 nM and < 10 nM | [21] 0.201 µM | [22] 16.1 nM and < 10 nM | [23] < 10 nM and 18.5 nM | [24] 8.91 nM and < 10 nM | [25] 20.1 nM and < 17.8 nM | [26] 210 nM and 166 nM | [27] < 10 nM and 19.1 nM | [28] 29.1 nM and 24.1 nM | [29] 15.6 nM and 16.2 nM | [30] 0.124 µM | [31] 13.9 nM and 26.3 nM | [32] < 10 nM and 16.2 nM | [34] < 10 nM and 8.95 nM
938 nM (active) and 1.19 µM (inactive): [33]
0.8 µM and 0.935 µM: [9]
inactive: [20] > 60.8 µM and 51.9 µM

c1ccc(OCc2nnc3n2N=C(c2ccccc2)CS3)cc1
inactive: [35] > 100 µM | [1] 53.5 µM | [2] > 100 µM | [36] > 100 µM | [37] 71 µM | [38] > 100 µM | [4] > 100 µM | [39] > 100 µM | [5] > 100 µM | [40] > 100 µM | [8] > 100 µM | [41] > 100 µM | [42] > 100 µM | [43] > 100 µM | [44] > 100 µM | [45] > 100 µM | [46] > 100 µM | [47] > 100 µM | [48] > 100 µM | [49] > 100 µM | [50] > 100 µM | [51] > 100 µM | [52] 71.6 µM | [16] > 100 µM | [53] > 100 µM | [17] > 100 µM | [18] > 100 µM | [19] 55.5 µM | [54] > 100 µM | [55] > 100 µM | [56] > 100 µM | [57] > 100 µM | [58] > 100 µM | [59] > 100 µM | [60] > 100 µM | [61] > 100 µM | [22] > 100 µM | [23] > 100 µM | [24] 75.3 µM | [25] > 100 µM | [26] > 100 µM | [62] > 100 µM | [63] > 100 µM | [27] 33 µM | [28] > 100 µM | [64] > 100 µM | [29] > 100 µM | [65] > 100 µM | [66] > 100 µM | [31] > 100 µM | [32] > 100 µM | [33] 23 µM | [34] > 100 µM
> 100 µM: [9]

CC(C)=CCSC1CC2C(CC1(C)O)C2(C)C (centres undefined)
17.3 µM and 16.1 µM: [9]
inactive: [35] 15.9 µM and 13.1 µM | [1] 21.6 µM and 17.3 µM | [2] 11.6 µM and 16.6 µM | [36] 17.2 µM and 17.5 µM | [37] 14.6 µM and 12.5 µM | [67] 17.1 µM and 18.5 µM | [4] 17.3 µM and 13.8 µM | [39] 15.6 µM and 10.1 µM | [5] 15.8 µM and 9.98 µM | [7] 12.9 µM and 16.1 µM | [40] 1.83 µM and 2.82 µM | [8] 15.3 µM and 17.1 µM | [42] 16.4 µM and 16.6 µM | [43] 14.1 µM and 16.6 µM | [44] 15.7 µM and 14.9 µM | [45] 19 µM and 16.9 µM | [68] 15.7 µM and 19.1 µM | [47] 19.3 µM and 14.1 µM | [48] 16.2 µM and 15.1 µM | [49] 17.3 µM and 14 µM | [50] 17.7 µM and 14.7 µM | [52] 13.6 µM and 20.9 µM | [16] 17.3 µM and 16.4 µM | [53] 13.7 µM and 14.4 µM | [17] 16.1 µM and 12.5 µM | [18] 18.4 µM and 14.2 µM | [54] 17.1 µM and 11.4 µM | [55] 19.7 µM and 15.8 µM | [56] 14.9 µM and 16.5 µM | [57] 16.6 µM and 14.1 µM | [58] 17.5 µM and 21.9 µM | [60] 18.3 µM and 16.3 µM | [61] 40.7 µM and 20.9 µM | [22] 18 µM and 15.6 µM | [23] 16.8 µM and 17 µM | [26] 15 µM and 16.2 µM | [62] 17 µM and 15.6 µM | [63] 17.2 µM and 19.3 µM | [27] 15.8 µM and 11.5 µM | [28] 23.4 µM and 12 µM | [29] 19.6 µM and 17.1 µM | [65] 18.1 µM and 16.9 µM | [66] 15.2 µM and 14.1 µM | [32] 15.4 µM and 17.5 µM | [34] 4.84 µM and 4.62 µM
